Activity calls are given as the source filed them. The rule behind the calls is not given here.
Assays:
[1] = biological target: Voltage-gated inwardly rectifying potassium channel KCNH2 (Homo sapiens, UniProt Q12809); experiment: Displacement of [3H]-Astemizole from human ERG by membrane binding assay
[2] = AUC (0 to 24 hrs) in rat at 1 mg/kg, iv; type: ADME, organism-based; design: dose 1 mg/kg, time < 24 hr, route intravenous; details: in vivo
[3] = biological target: T1, Metabotropic glutamate receptor 3 (Homo sapiens, UniProt Q14832); experiment: Antagonist activity at recombinant human mGlu3 receptor expressed in hamster AV12 cells assessed as inhibition of DCG-4-inhibited forskolin-stimulated cAMP formation up to 25 uM after 20 mins by HTRF assay relative to control; type: functional, cell-based
[4] = biological target: T2, Metabotropic glutamate receptor 2 (Homo sapiens, UniProt Q14416); experiment: Antagonist activity at recombinant human mGlu2 receptor expressed in hamster AV12 cells assessed as inhibition of DCG-4-inhibited forskolin-stimulated cAMP formation up to 25 uM after 20 min by HTRF assay relative to control; type: functional, cell-based
Target sequence in this assay (Q14416 19-872 limits assumed): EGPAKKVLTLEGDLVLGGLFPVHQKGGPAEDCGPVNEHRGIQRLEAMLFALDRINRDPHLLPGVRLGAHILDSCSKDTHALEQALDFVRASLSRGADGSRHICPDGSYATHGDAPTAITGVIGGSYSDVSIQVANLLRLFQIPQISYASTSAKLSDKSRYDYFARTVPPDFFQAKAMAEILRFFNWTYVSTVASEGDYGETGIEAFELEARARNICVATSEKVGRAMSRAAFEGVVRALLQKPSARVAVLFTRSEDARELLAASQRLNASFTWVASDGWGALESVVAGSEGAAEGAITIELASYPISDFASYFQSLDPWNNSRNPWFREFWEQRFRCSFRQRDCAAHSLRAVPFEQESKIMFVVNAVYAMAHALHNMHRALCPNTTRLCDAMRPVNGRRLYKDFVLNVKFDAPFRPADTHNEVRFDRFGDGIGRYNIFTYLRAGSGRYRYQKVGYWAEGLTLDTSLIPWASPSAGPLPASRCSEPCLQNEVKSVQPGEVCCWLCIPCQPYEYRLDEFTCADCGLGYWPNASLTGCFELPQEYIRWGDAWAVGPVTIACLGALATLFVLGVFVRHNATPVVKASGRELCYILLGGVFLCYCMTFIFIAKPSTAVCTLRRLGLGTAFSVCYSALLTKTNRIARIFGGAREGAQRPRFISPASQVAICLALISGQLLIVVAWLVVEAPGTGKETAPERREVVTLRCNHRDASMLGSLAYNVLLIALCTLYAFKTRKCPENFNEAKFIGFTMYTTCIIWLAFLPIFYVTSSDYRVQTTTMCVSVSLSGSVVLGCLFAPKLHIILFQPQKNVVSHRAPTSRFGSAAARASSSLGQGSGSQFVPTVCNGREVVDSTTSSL

[5] = biological target: T3, Metabotropic glutamate receptor 5 (Homo sapiens, UniProt P41594); experiment: Agonist activity at recombinant human mGlu5 receptor expressed in hamster AV12 cells co-expressing human EAAT1/Galpha1s assessed as increase in Ca2+ flux by Fluo-3-AM dye based FLIPR assay; type: functional, cell-based
CYP3A4 = CYP3A4 (Homo sapiens, UniProt P08684); experiment: Inhibition of human CYP3A4 at 10 uM; type: ADME
[6] = AUC (0 to 24 hrs) in rat at 10 mg/kg, ip; type: ADME, organism-based; design: dose 10 mg/kg, time < 24 hr, route intraperitoneal; details: in vivo
hERG (KCNH2) = hERG (KCNH2) (Homo sapiens, UniProt Q12809); experiment: Displacement of [3H]-Astemizole from human ERG at 100 uM by membrane binding assay; details: membranes with human ERG, probe [3H]-Astemizole
[7] = biological target: T4, Metabotropic glutamate receptor 1 (Homo sapiens, UniProt Q13255); experiment: Agonist activity at recombinant human mGlu1 receptor expressed in hamster AV12 cells co-expressing human EAAT1/Galpha1s assessed as increase in Ca2+ flux by Fluo-3-AM dye based FLIPR assay; type: functional, cell-based
[8] = biological target: T5, Metabotropic glutamate receptor 7 (Homo sapiens, UniProt Q14831); experiment: Antagonist activity at recombinant human mGlu7 receptor expressed in hamster AV12 cells co-expressing human EAAT1/Galpha1s assessed as inhibition of Ca2+ flux by Fluo-3-AM dye based FLIPR assay; type: functional, cell-based
[9] = biological target: T5, Metabotropic glutamate receptor 7; experiment: Agonist activity at recombinant human mGlu7 receptor expressed in hamster AV12 cells co-expressing human EAAT1/Galpha1s assessed as increase in Ca2+ flux by Fluo-3-AM dye based FLIPR assay; type: functional, cell-based
[10] = Antidepressant activity in NIH Swiss Webster mouse assessed as immobility time at 0.3 mg/kg, ip administered 30 mins prior to test measured during last 4 mins of the 6 mins observation time by forced swim test (reference value: 142 sec); type: functional, organism-based
[11] = Unbound fraction in human plasma at 1 uM; type: ADME, cell-free
[12] = biological target: T6, Metabotropic glutamate receptor 4 (Homo sapiens, UniProt Q14833); experiment: Agonist activity at recombinant human mGlu4 receptor expressed in hamster AV12 cells co-expressing human EAAT1/Galpha1s assessed as increase in Ca2+ flux by Fluo-3-AM dye based FLIPR assay; type: functional, cell-based
[13] = Drug metabolism in dog microsomes at 4 uM after 30 mins; type: ADME, Canis lupus familiaris, Microsome; details: read-out: Drug metabolism
[14] = Antidepressant activity in ip dosed NIH Swiss Webster mouse assessed as reduction in immobility time administered 30 mins prior to evaluation measured on the last 4 mins of the 6 mins observation time by forced swim test; type: functional, organism-based
[15] = Antidepressant activity in NIH Swiss Webster mouse assessed as immobility time at 1 mg/kg, ip administered 30 mins prior to test measured during last 4 mins of the 6 mins observation time by forced swim test (reference value: 142 sec); type: functional, organism-based
[16] = Drug metabolism in monkey microsomes at 4 uM after 30 mins; type: ADME, Macaca mulatta, Microsome; details: rhesus monkey, read-out: Drug metabolism
[17] = Permeability from apical side to basolateral side in MDCK cells at 20 uM; type: ADME, cell-based, Canis lupus familiaris; details: dog
[18] = biological target: T4, Metabotropic glutamate receptor 1; experiment: Antagonist activity at recombinant human mGlu1 receptor expressed in hamster AV12 cells coexpressing human EAAT1/Galpha1s assessed as inhibition of Ca2+ flux by Fluo-3-AM dye based FLIPR assay; type: functional, cell-based
[19] = Drug uptake in NIH Swiss Webster mouse brain at 3 mg/kg, ip at 30 mins; type: ADME, organism-based; details: read-out: Drug uptake
CYP2D6 = CYP2D6 (Homo sapiens, UniProt P10635); experiment: Inhibition of human CYP2D6 at 10 uM; type: ADME
[20] = biological target: T1, Metabotropic glutamate receptor 3; experiment: Agonist activity at recombinant human mGlu3 receptor expressed in hamster AV12 cells co-expressing human EAAT1 assessed as increase in forskolin-stimulated cAMP formation up to 25 uM after 20 mins by HTRF assay; type: functional, cell-based
[21] = Antidepressant activity in rat EEG model assessed as accumulated wake time at 3 mg/kg, ip measured over 7 hrs relative to control; type: functional, organism-based
Rattus norvegicus = experiment: Toxicity in rat assessed as increase in locomotive activity at 3 to 10 mg/kg, ip; type: organism-based; details: in vivo
[22] = AUC (0 to 24 hrs) in rat at 5 mg/kg, po; type: ADME, organism-based; design: time < 24 hr, dose 5 mg/kg, route oral; details: in vivo
[23] = Half life in rat at 1 mg/kg, iv; type: ADME, organism-based; details: in vivo
[24] = biological target: Metabotropic glutamate receptor 8 (Homo sapiens, UniProt O00222); experiment: Agonist activity at recombinant human mGlu8 receptor expressed in hamster AV12 cells co-expressing human EAAT1 assessed as induction of forskolin-stimulated cAMP formation after 20 mins by HTRF assay; type: functional, cell-based
[25] = Cmax in rat at 5 mg/kg, po; type: ADME, organism-based; design: dose 5 mg/kg, route oral; details: in vivo
[26] = Tmax in rat at 5 mg/kg, po; type: ADME, organism-based; details: in vivo
[27] = biological target: T3, Metabotropic glutamate receptor 5; experiment: Antagonist activity at recombinant human mGlu5 receptor expressed in hamster AV12 cells coexpressing human EAAT1/Galpha1s assessed as inhibition of Ca2+ flux by Fluo-3-AM dye based FLIPR assay; type: functional, cell-based
[28] = Plasma concentration in NIH Swiss Webster mouse at 3 mg/kg, ip at 30 mins; type: ADME, organism-based
[29] = biological target: T2, Metabotropic glutamate receptor 2; experiment: Agonist activity at recombinant human mGlu2 receptor expressed in hamster AV12 cells co-expressing human EAAT1 assessed as increase in forskolin-stimulated cAMP formation up to 25 uM after 20 mins by HTRF assay; type: functional, cell-based
[30] = Antidepressant activity in rat assessed as increase in wakefulness at 3 to 10 mg/kg, ip
[31] = Plasma concentration in NIH Swiss Webster mouse at 0.3 mg/kg, ip at 30 mins; type: ADME, organism-based
[32] = biological target: Metabotropic glutamate receptor 6 (Homo sapiens, UniProt O15303); experiment: Agonist activity at recombinant human mGlu6 receptor expressed in hamster AV12 cells co-expressing EAAT1 assessed as induction of forskolin-stimulated cAMP formation after 20 mins by HTRF assay; type: functional, cell-based
[33] = Drug metabolism in rat microsomes at 4 uM after 30 mins; type: ADME, Microsome; details: read-out: Drug metabolism
[34] = biological target: T6, Metabotropic glutamate receptor 4; experiment: Antagonist activity at recombinant human mGlu4 receptor expressed in hamster AV12 cells co-expressing human EAAT1/Galpha1s assessed as inhibition of Ca2+ flux by Fluo-3-AM dye based FLIPR assay; type: functional, cell-based

T4 sequence (Q13255 whole entry): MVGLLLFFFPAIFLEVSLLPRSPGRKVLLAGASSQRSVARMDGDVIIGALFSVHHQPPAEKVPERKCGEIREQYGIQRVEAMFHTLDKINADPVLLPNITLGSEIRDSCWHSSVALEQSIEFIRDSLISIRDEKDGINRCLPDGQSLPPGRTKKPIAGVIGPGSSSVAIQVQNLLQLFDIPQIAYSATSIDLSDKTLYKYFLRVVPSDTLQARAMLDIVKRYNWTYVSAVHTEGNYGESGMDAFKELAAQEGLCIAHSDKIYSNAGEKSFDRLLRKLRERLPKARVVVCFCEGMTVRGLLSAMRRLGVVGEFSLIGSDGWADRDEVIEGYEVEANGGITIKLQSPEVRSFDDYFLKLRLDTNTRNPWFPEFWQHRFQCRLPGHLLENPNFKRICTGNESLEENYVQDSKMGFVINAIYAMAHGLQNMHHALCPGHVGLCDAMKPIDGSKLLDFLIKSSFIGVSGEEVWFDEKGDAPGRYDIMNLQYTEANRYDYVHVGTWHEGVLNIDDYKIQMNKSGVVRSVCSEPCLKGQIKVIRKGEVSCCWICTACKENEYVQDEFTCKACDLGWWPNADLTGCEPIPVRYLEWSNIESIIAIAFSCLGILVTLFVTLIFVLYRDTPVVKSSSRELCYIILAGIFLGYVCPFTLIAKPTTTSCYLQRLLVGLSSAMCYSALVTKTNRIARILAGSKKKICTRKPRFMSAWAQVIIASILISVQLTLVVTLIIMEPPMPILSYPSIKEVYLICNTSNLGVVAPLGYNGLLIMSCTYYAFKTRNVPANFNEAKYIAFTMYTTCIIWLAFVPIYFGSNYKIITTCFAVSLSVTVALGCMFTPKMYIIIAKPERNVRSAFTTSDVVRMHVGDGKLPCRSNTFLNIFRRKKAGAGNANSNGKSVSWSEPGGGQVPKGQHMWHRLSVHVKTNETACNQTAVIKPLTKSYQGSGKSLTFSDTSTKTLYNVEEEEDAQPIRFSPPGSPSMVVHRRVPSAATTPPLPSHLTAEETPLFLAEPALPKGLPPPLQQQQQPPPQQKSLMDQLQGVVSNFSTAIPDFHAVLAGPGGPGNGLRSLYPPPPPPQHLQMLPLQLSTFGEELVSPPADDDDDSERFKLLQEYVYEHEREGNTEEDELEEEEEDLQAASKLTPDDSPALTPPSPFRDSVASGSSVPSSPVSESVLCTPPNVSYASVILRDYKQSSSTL
T5 sequence (Q14831 whole entry): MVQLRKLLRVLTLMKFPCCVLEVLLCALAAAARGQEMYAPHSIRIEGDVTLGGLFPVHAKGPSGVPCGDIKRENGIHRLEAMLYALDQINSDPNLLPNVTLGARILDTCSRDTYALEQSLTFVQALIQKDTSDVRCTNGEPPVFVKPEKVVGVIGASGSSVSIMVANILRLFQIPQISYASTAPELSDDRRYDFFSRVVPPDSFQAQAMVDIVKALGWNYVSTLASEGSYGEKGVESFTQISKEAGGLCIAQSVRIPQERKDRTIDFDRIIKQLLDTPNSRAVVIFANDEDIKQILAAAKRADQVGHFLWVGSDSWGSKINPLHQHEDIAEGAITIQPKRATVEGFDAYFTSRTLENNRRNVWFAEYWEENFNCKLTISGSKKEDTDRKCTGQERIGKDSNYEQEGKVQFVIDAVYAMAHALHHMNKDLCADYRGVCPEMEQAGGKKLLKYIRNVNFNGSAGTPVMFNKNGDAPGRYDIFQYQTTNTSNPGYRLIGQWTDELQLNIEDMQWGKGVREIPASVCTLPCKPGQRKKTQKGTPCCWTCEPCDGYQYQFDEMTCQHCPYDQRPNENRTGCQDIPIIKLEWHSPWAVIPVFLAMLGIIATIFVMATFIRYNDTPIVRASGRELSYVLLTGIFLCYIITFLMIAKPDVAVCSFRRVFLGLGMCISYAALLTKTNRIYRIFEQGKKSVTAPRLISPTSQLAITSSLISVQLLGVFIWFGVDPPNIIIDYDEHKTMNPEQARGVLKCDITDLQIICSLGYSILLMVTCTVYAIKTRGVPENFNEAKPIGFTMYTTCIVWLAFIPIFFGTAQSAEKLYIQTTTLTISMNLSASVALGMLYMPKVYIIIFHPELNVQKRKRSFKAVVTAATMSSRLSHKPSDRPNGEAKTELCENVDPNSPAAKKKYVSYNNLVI
T3 sequence (P41594 whole entry): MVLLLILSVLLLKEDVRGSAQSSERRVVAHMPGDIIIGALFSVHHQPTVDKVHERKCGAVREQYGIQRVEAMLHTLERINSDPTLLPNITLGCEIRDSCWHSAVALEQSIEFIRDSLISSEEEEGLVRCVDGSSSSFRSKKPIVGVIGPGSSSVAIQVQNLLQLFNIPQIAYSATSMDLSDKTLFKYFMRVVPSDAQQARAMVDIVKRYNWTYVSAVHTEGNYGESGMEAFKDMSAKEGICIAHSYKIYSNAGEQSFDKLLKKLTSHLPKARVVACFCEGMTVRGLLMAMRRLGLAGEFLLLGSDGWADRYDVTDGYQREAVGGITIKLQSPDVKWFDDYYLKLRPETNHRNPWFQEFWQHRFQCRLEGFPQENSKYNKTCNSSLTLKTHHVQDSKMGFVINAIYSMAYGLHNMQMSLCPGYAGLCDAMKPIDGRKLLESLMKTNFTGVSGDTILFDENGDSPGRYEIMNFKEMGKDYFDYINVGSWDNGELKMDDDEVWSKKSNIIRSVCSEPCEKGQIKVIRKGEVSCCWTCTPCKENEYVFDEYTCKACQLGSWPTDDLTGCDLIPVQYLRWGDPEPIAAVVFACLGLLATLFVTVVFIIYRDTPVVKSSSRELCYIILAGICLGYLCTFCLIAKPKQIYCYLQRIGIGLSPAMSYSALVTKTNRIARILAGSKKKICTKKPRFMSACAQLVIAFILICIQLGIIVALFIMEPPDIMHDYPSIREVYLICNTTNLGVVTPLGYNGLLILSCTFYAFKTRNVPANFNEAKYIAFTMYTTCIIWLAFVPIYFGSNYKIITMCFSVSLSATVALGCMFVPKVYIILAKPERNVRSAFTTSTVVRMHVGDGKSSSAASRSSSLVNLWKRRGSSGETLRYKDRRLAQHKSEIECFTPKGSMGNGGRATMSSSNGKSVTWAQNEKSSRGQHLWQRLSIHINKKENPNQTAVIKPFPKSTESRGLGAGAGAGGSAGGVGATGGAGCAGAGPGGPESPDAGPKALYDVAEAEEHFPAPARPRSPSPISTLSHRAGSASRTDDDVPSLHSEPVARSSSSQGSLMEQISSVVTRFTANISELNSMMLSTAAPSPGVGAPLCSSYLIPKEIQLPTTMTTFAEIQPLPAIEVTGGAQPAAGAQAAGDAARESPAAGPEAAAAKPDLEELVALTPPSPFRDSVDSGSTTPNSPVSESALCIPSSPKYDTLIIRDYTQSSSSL
T6 sequence (Q14833 whole entry): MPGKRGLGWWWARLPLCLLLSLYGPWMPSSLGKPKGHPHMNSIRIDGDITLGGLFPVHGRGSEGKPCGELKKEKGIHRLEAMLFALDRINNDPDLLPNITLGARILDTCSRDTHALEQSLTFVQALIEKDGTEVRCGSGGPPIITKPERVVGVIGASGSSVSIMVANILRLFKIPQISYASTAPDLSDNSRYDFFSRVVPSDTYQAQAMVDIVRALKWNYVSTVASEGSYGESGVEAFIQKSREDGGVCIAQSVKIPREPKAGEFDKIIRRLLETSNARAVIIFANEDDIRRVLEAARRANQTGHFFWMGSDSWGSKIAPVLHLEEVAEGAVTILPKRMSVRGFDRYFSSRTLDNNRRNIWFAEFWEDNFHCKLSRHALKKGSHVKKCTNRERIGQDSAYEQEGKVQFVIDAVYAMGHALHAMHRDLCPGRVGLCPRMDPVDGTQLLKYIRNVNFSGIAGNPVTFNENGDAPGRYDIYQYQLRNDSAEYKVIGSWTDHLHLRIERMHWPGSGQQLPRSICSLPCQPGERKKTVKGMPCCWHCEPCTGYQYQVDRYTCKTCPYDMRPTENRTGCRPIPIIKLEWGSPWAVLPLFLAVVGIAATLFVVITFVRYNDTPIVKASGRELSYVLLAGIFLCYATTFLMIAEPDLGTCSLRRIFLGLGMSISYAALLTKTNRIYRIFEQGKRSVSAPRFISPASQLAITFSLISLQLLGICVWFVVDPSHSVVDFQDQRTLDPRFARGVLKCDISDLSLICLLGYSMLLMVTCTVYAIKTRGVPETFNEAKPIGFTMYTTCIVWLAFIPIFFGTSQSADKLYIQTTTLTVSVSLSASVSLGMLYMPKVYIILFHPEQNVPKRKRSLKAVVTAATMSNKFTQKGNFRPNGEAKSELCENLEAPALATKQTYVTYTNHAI

For `N[C@]1(C(=O)O)[C@@H]2[C@@H](C(=O)O)[C@@H]2[C@H](O)[C@H]1OCc1ccc(Cl)c(Cl)c1`, the Ki [1] was over 100 µM, the AUC [2] was 32.165 µM·h and the inhibition [3] was “Active”. The inhibition [4] was “Active”, the EC50 [5] was over 25 µM and the inhibition at 10 µM (CYP3A4) was under 5%. For the same molecule, the AUC(0-t) at 24 h [6] was 116 µM·h, the inhibition at 100 µM (hERG (KCNH2)) was 13% and the EC50 [7] was over 25 µM. For the same molecule, the IC50 [8] was 10.5 µM, the EC50 [9] was over 25 µM and the TIME [10] was 0.0394 h. For the same molecule, the fraction unbound at 1 µM [11] was over 0.4, the EC50 [12] was over 25 µM and the metabolised at 0.5 h, 4 µM [13] was under 20%. For the same molecule, the ED60 [14] was 0.72 mg/kg, the MED [14] was 1 mg/kg and the TIME [15] was 0.0272 h. It also gave a metabolised at 0.5 h, 4 µM [16] of under 20%, a permeability [17] of 2% and an IC50 [18] of over 12.5 µM. It also gave a concentration at 0.5 h [19] of 248 nM, an inhibition at 10 µM (CYP2D6) of under 5% and an EC50 [20] of over 25 µM. The Activity [21] was “Dose-dependent effect”, the Activity (Rattus norvegicus) was “Non-Toxic” and the AUC [22] was 1.783 µM·h. It also gave a half-life [23] of 4.61 h, an EC50 [24] of over 50 µM and a Cmax [25] of 262 nM. It also gave a Tmax [26] of 1.67 h, an IC50 [27] of over 12.5 µM and a concentration at 0.5 h [28] of 16500 nM. For the same molecule, the EC50 [29] was over 25 µM, the Activity [30] was “Active” and the concentration at 0.5 h [31] was 1290 nM. For the same molecule, the EC50 [32] was over 12.5 µM, the metabolised at 0.5 h, 4 µM [33] was under 20% and the IC50 [34] was over 12.5 µM.
